ChEMBL document CHEMBL5523761 (J Med Chem, 2024)

Columns and labels:
[1] = target: T1, D(1A) dopamine receptor (Homo sapiens, UniProt P21728)
Description: Binding affinity to D1 receptor (unknown origin) assessed as inhibition constant

[2] = target: T2, D(2) dopamine receptor (Homo sapiens, UniProt P14416)
Description: Binding affinity to D2S receptor (unknown origin) assessed as inhibition constant

[3] = target: T3, Amine oxidase [flavin-containing] B (Homo sapiens, UniProt P27338)
T3 sequence (P27338 whole entry): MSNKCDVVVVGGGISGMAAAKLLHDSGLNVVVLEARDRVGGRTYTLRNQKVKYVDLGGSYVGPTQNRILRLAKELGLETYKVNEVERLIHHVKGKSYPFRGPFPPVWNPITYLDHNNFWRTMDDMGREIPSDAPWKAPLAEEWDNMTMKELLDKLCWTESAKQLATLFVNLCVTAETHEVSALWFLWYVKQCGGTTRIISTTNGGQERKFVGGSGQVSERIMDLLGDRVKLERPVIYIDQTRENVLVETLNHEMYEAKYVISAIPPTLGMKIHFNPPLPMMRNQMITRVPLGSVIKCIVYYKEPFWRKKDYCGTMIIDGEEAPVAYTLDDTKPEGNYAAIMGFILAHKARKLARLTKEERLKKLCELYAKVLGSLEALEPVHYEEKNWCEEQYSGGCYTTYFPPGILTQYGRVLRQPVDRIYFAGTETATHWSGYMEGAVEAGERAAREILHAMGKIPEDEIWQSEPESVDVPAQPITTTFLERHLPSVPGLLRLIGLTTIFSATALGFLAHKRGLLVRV
Description: Inhibition of MAO-B (unknown origin) measured by MAO-GloTM method

[4] = target: T4, Amine oxidase [flavin-containing] A (Homo sapiens, UniProt P21397)
T4 sequence (P21397 whole entry): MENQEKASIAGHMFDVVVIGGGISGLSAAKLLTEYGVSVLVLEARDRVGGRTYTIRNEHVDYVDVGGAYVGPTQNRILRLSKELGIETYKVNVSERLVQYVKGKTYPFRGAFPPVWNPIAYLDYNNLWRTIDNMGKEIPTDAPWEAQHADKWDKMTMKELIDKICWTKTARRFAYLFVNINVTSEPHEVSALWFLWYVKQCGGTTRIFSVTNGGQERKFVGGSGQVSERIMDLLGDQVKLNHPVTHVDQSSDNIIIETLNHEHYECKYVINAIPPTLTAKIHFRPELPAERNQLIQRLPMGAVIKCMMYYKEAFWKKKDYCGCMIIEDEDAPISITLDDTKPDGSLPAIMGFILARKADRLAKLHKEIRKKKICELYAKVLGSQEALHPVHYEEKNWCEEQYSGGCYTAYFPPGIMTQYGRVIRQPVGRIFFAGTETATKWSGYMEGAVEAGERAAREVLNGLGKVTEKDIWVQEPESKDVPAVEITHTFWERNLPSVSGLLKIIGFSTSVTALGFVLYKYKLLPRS
Description: Inhibition of MAO-A (unknown origin) measured by MAO-GloTM method

[5] = target: T5, D(3) dopamine receptor (Homo sapiens, UniProt P35462)
T5 sequence (P35462 whole entry): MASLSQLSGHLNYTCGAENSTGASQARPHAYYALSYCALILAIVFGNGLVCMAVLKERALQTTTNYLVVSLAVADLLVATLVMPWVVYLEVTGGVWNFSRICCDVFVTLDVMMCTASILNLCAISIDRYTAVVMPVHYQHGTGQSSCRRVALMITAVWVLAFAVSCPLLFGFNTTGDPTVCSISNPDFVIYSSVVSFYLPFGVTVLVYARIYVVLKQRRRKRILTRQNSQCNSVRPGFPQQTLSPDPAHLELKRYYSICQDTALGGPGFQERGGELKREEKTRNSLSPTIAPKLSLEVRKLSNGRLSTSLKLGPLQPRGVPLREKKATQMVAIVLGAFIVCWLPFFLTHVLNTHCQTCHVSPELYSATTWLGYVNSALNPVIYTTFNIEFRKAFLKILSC
Description: Agonist activity at D3 receptor (unknown origin)

[6] = target: T6, D(4) dopamine receptor (Homo sapiens, UniProt P21917)
T6 sequence (P21917 whole entry): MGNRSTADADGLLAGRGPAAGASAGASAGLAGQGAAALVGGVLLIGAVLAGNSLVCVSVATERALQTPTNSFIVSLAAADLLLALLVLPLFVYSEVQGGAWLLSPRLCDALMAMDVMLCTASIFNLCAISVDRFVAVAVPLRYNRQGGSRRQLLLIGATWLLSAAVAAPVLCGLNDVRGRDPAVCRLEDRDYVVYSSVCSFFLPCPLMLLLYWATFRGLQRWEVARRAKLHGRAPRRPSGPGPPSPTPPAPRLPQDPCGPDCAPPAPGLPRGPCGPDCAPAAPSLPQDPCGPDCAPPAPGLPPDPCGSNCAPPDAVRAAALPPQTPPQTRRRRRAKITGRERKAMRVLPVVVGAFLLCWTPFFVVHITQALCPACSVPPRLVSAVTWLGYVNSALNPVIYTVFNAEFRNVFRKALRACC
Description: Agonist activity at D4 receptor (unknown origin)

[7] = target: T5, D(3) dopamine receptor; remark: listed apart in the source
Description: Binding affinity to D3 receptor (unknown origin) assessed as inhibition constant

[8] = target: T2, D(2) dopamine receptor; remark: listed apart in the source
Description: Binding affinity to D2 receptor (unknown origin) assessed as inhibition constant

[9] = target: Beta-secretase 1 (Homo sapiens, UniProt P56817)
Chain of Beta-secretase 1 (P56817 whole entry): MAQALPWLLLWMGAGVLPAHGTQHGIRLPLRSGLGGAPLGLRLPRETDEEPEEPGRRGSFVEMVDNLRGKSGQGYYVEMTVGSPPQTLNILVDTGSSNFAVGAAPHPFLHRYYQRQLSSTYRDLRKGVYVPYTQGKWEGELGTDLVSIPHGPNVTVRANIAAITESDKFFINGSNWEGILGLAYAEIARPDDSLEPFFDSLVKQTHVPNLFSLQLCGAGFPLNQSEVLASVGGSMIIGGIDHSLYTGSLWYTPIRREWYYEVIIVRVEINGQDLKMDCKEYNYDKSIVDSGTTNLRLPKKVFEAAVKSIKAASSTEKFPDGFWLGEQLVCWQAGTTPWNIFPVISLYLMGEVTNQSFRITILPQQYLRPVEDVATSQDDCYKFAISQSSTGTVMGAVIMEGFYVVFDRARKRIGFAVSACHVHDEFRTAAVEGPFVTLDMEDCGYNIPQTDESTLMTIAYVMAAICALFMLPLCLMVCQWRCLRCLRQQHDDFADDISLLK
Description: Inhibition of BACE1 (unknown origin) by FRET assay

[10] = target: Acetylcholinesterase (Homo sapiens, UniProt P22303)
Chain of Acetylcholinesterase (P22303 whole entry): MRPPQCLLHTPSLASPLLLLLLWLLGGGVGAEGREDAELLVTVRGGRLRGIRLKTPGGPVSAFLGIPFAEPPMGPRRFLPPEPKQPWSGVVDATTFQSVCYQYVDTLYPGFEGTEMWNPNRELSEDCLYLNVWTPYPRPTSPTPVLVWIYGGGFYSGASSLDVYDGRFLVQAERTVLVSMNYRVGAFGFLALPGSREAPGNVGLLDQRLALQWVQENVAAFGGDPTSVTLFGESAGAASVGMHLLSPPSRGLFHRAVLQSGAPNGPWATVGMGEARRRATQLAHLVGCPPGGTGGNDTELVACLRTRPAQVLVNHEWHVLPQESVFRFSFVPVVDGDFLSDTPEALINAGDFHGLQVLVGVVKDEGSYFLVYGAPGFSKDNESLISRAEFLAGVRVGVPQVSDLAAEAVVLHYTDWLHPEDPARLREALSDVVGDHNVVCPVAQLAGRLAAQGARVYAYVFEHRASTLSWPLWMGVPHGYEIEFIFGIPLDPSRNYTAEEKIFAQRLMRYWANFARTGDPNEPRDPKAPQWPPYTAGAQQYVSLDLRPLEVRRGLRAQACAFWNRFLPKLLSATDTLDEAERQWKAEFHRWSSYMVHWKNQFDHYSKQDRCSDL
Description: Inhibition of AChE (unknown origin) by Ellman's colorimetric method

[11] = target: Cholinesterase (Homo sapiens, UniProt P06276)
Chain of Cholinesterase (P06276 whole entry): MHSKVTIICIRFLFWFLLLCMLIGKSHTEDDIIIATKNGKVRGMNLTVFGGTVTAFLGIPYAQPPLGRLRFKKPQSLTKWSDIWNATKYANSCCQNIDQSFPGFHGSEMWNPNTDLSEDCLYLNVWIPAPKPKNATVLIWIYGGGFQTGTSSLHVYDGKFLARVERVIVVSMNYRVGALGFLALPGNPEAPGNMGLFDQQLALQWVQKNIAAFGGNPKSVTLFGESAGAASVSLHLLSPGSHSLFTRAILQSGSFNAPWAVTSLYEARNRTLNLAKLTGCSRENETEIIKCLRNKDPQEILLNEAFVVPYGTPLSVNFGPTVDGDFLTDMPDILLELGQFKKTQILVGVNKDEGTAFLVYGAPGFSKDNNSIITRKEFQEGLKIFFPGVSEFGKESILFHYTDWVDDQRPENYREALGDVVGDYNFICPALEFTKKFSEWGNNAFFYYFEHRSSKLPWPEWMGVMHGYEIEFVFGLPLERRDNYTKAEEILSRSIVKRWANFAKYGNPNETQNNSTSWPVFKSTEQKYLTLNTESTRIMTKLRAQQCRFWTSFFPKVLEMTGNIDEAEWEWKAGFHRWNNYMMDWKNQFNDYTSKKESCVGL
Description: Inhibition of BChE (unknown origin) by Ellman's colorimetric method

[12] = target: T1, D(1A) dopamine receptor; remark: listed apart in the source
Description: Inhibition of D1 receptor (unknown origin)

[13] = target: T2, D(2) dopamine receptor; remark: listed apart in the source
Description: Inhibition of D2 receptor (unknown origin)

T2 sequence (P14416 whole entry): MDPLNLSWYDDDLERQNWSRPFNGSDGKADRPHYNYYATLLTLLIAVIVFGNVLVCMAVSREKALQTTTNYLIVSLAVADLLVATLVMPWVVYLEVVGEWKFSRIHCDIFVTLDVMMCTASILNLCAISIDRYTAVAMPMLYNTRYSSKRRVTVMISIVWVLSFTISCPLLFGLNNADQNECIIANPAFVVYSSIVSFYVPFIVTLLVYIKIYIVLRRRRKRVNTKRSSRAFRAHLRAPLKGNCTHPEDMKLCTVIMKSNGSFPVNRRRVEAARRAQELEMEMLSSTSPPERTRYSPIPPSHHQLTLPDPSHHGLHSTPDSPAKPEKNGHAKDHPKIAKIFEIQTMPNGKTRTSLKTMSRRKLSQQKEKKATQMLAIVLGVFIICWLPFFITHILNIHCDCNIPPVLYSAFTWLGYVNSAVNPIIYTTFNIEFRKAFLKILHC
T1 sequence (P21728 whole entry): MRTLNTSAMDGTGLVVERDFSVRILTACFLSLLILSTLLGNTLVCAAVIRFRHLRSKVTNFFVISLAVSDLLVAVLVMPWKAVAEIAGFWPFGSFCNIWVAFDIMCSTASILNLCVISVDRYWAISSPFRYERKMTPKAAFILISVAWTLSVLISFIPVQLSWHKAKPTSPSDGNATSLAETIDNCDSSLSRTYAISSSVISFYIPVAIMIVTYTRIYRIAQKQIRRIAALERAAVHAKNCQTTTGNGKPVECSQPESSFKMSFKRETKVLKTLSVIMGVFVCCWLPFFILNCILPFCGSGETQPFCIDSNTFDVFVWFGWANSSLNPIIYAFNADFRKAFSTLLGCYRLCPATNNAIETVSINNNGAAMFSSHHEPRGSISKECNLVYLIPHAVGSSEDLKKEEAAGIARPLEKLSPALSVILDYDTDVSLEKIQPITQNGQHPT

SMILES: CCCN1CCc2cc(OCCCF)cc3c2[C@H]1Cc1cccc(O)c1-3
- Ki [1]: 0.00054 µM

SMILES: CCN1CCc2cc(OCCF)cc3c2[C@H]1Cc1cccc(O)c1-3
- Ki [1]: 0.00083 µM

SMILES: COc1cc2c(cc1O)CN1CCc3cc(OC)c(O)cc3[C@@H]1C2
- Ki [2]: 0.514 µM

SMILES: Oc1c(O)c(Br)c(COCc2c(Br)c(O)c(O)c(Br)c2Br)c(Br)c1Br
- IC50 [3]: 103 µM
- IC50 [4]: 89.3 µM
- EC50 [5]: 59 µM
- EC50 [6]: 59 µM

SMILES: Oc1cc2c(cc1O)C1Cc3cccc(O)c3CN1CC2 (stereo not drawn)
- Ki [7]: 0.093 µM
- Ki [1]: 3.8 µM

SMILES: CCCN1CCc2cccc3c2[C@H]1Cc1cccc(OC(C)=O)c1-3
- Ki [1]: > 10 µM
- Ki [8]: 0.0723 µM

SMILES: CCCN1CCc2cccc3c2[C@H]1Cc1cccc(O)c1-3
- Ki [1]: 0.699 µM

SMILES: CCCCC(=O)Oc1cccc2c1-c1cccc3c1[C@@H](C2)N(CCC)CC3
- Ki [1]: > 20 µM
- Ki [8]: 0.34 µM

SMILES: C=C(C)[C@H](CC=C(C)C)Cc1c(O)cc(OC)c2c1O[C@H](c1ccc(O)cc1O)CC2=O
- IC50 [9]: 24.5 µM
- IC50 [10]: 42.1 µM
- IC50 [11]: 5.29 µM

SMILES: OCc1c(Br)c(O)c(O)c(Br)c1Br
- IC50 [3]: 151 µM
- IC50 [4]: 205 µM
- EC50 [6]: 57.2 µM

SMILES: COc1cc2c(cc1OC)Oc1c(O)ccc3c1[C@@H](C2)N(C)CC3
- IC50 [12]: 0.08 µM
- IC50 [13]: 0.32 µM

SMILES: COC1=CC2C[C@@H]3c4cc(O)c(OC)cc4CCN3CC2C=C1O (stereo partly drawn)
- Ki [2]: 0.708 µM
- Ki [7]: 0.606 µM
- Ki [1]: 0.00875 µM

SMILES: COc1cc2c(cc1O)C[C@@H]1c3c(ccc(O)c3O2)CCN1C
- IC50 [12]: 0.1 µM
- IC50 [13]: 0.22 µM
